Experimental data taken from patent US10968186B2, “Ascochlorin derivative and use thereof as AMPK activator” (priority 2016, dated 2021).
Converted amounts (≈) assume the structure as drawn.

Assays:
[1] = Solubility in pH4.0 and pH7.4 phosphate buffer solution; assay type: physicochemical; settings: 2 hr incubation, 25° C.
Experimental: 1) Preparation of Stock Solutions
Diclofenac was used as positive control in the assay.
2) Procedures for Solubility Determination
This study was performed in duplicate. […] The filtered samples were diluted with methanol.
3) Samples Analyzed by LC-MS/MS

[2] = Stability in acidic pH phosphate buffer solution (hydrolysis to MAC); assay type: physicochemical; settings: room temperature
From the text: Therefore, the Schiff base derivatives of MAC have the same problem in the metabolic stability as the parent compound, MAC.

[3] = Stability against human liver microsomes; assay type: in vitro ADME; settings: 2 μM compound
Experimental: (§1) Determination of Stability Against Mouse and Human Mirosomes
(§2) Pooled human liver microsomes (Cat. 452161; Lot. 23418) were purchased from Corning and pooled male mouse liver microsomes (Cat. M1000; Lot. 1210302) were purchased from Xenotech. Microsomes were stored at −80° C. prior to use. 40 μL of ultra-pure H2O was used instead of NADPH solution in the negative control. The negative control was used to exclude the misleading factor that was resulted from instability of chemical itself. Samples with NADPH were prepared in duplicate. Negative controls were prepared in singlet.
(§3) The reaction was started with the addition of 4 μL of 200 μM compound solution to each master solution to get the final concentration of 2 μM. Verapamil was used as positive control in the assay. Aliquots of 50 μL were taken from the reaction solution at 0, 15, 30, 45 and 60 min. The reaction was stopped by addition of 4 volumes of cold acetonitrile with IS (200 nM imipramine, 200 nM labetalol and 2 μM ketoprofen). Samples were centrifuged at 3,220 g for 40 minutes. Aliquot of […] of the supernatant was mixed with 90 μL of ultra-pure H2O and then was used for LC-MS/MS analysis. Results are shown in Table 3 by indicating remaining % of the test compound after 60 minutes incubation with liver microsomes from human and mouse in the presence of NADPH.

[4] = Stability against mouse liver microsomes; assay type: in vitro ADME; settings: mouse LM, 2 μM compound, 60 min, NADPH
Experimental: as §1, §2, §3

A549 = test: Anti-proliferative activity, CellTiterGlo assay, A549; assay type: cell-based; settings: Homo sapiens; A549, 96 hrs incubation; read-out: Antiproliferative activities IC50, A549
Experimental: (§4) The anti-proliferative activities of the compounds against 6 human cancer cell lines were determined by CellTiterGlo assay kit. All cells were obtained from ATCC and cultured as recommended by the vendor. Cells were assayed in exponential growth phase. Sample solution was prepared by 3-fold serial dilution from 30 mM stock for 10 doses in DMSO. Antiproliferative activities were measured by CellTiterGlo assay kit according to the protocol after cells were incubated for 96 hrs in a 37° C., 5% CO2 incubator.
(§5) On the 4th day of incubation, i) 15 μl reagent (CelltiterGlo assay kit) was added per well and plate was shaken (avoiding light) for 2 mins on a plate shaker, ii) the plate was kept (avoiding light) in room temperature for 30 min, and iii) the luminescence value was recorded by Multiplate reader.

HT29 = test: Anti-proliferative activity, CellTiterGlo assay, HT29; assay type: cell-based; settings: Homo sapiens, HT-29; HT29, 96 hrs incubation; read-out: Antiproliferative activities IC50, HT29
Experimental: as §4, §5

BxPC-3 = test: Anti-proliferative activity, CellTiterGlo assay, BxPC-3; assay type: cell-based; settings: Homo sapiens; BxPC-3, 96 hrs incubation; read-out: Antiproliferative activities IC50, BxPC-3
Experimental: as §4, §5

LNCaP = test: Anti-proliferative activity, CellTiterGlo assay, LNCaP; assay type: cell-based; settings: Homo sapiens, 96 hrs incubation, read-out: Antiproliferative activities IC50, LNCaP
Experimental: as §4, §5

MDA-MB-231 = test: Anti-proliferative activity, CellTiterGlo assay, MDA-MB-231; assay type: cell-based; settings: Homo sapiens; MDA-MB-231, 96 hrs incubation; read-out: Antiproliferative activities IC50, MDA-MB-231
Experimental: as §4, §5

U87-MG = test: Anti-proliferative activity, CellTiterGlo assay, U87-MG; assay type: cell-based; settings: Homo sapiens, U-87 MG, 96 hrs incubation, read-out: Antiproliferative activities IC50, U87-MG
Experimental: as §4, §5

[5] = test system: Hep3B human liver cancer xenograft; test: Antitumor activity in Hep3B human liver cancer xenograft model; assay type: in vivo, BALB/c nude mice; settings: po 200 mg/kg once daily 5 days then 100 mg/kg 10 days; alone or in combination of sorafenib (80 mg/kg)
Experimental: Antitumor Activity of Compound 5 (po, qd×14) in Hep3B Human Liver Cancer Xenograft Model in BALB/c Nude Mice: Single Agent and Combination With Sorafenib
Each mouse was inoculated subcutaneously on the right flank with Hep3B tumor cells (5×106) in 0.1 ml of MEM-Matrigel mixture (1:1 ratio) for tumor development. The treatment started when the mean tumor size reached approximately 137 mm^3. Mice were then randomized into groups.
Compound 5 was dissolved in the vehicle (95% v/v PEG400+5% Tween 80) and orally administered to the tumor-bearing mice with 200 mg/kg, once daily for the first 5 days, followed by treatment with 100 mg/kg for 10 days.

COc1c(Cl)c(C)c(C=NCC(N)=O)c(O)c1C/C=C(C)/C=C/[C@@]1(C)[C@H](C)CCC(=O)[C@@H]1C [compound #13 in WO2004/074236, reference compound]
Solubility, pH 4.0 PBS ([1]; pH 4.0 phosphate buffer solution): converted to MAC | solubility at 2 h ([1]; pH 7.4 phosphate buffer solution, read-out: Solubility, pH 7.4 PBS): 0.02 µM (≈ 9.5 ng/mL) | hydrolysis to MAC at pH 4.0 phosphate buffer solution [2]: almost instantly hydrolyzed to MAC

CC(/C=C/[C@@]1(C)[C@H](C)CC/C(=N\O)[C@@H]1C)=C\Cc1c(O)c(C=O)c(C)c(Cl)c1OCF [Compound 5, 3-chloro-4-(fluoromethoxy)-6-hydroxy-5-[(2E,4E)-5-[(1R,2R,3E,6R)-3-(hydroxyimino)-1,2,6-trimethylcyclohexyl]-3-methylpenta-2,4-dien-1-yl]-2-methylbenzaldehyde]
Liver microsome stability remaining % after 60 min incubation with NADPH, human LM [3]: 86% | Liver microsome stability remaining % after 60 min incubation with NADPH, mouse LM [4]: 88% | IC50 (A549): 2.7 µM | IC50 (HT29): 2.8 µM | IC50 (BxPC-3): 3.2 µM | IC50 (LNCaP): 1.8 µM | IC50 (MDA-MB-231): 2.6 µM | IC50 (U87-MG): 5.5 µM | effect to reduce the proliferation of the liver cancer cells (tumor size) [5]: significant effect

COc1c(Cl)c(C)c(C=O)c(O)c1C/C=C(C)/C=C/[C@@]1(C)[C@H](C)CC[C@](C)(O)[C@@H]1C [Compound 1, 3-chloro-6-hydroxy-5-[(2E,4E)-5-[(1R,2R,3S,6R)-3-hydroxy-1,2,3,6-tetramethylcyclohexyl]-3-methylpenta-2,4-dien-1-yl]-4-methoxy-2-methylbenzaldehyde]
melting point: 42 to 43 °C
